From ChEMBL document CHEMBL1681662, “A new structural alert for benzimidazoles: 2,6-dimethylphenyl substituents increase mutagenic potential and time-dependent CYP3A4 inhibition risk” (Bioorg Med Chem Lett, 2011)
Blank lines part the entries; values can stand above or below the compound they belong to. Active and inactive are the calls of the source. The calls are words filed in the database; no cut-off is given here.

Assays:
[1] = biological target: T1, Cytochrome P450 3A4 (Homo sapiens, UniProt P08684); assay: Inhibition of CYP3A4 in human liver microsome measured after 30 mins preincubation in presence of NADPH; format: ADME, microsomes
[2] = biological target: T1, Cytochrome P450 3A4; assay: Inhibition of CYP3A4; format: ADME
[3] = test system: Salmonella typhimurium; assay: Mutagenic activity in Salmonella Typhimurium TA98 assessed as fold increase in maximum revertant at 300 ug by Ames test in presence of S9 fraction; format: functional, Salmonella enterica subsp. enterica serovar Typhimurium
[4] = test system: Salmonella typhimurium; assay: Mutagenic activity in Salmonella Typhimurium TA98 assessed as fold increase in maximum revertant at 100 ug by Ames test; format: functional, Salmonella enterica subsp. enterica serovar Typhimurium
[5] = test system: Salmonella typhimurium; assay: Mutagenic activity in Salmonella Typhimurium TA100 assessed as fold increase in maximum revertant at 1000 ug by Ames test in presence of S9 fraction; format: functional
[6] = test system: Salmonella typhimurium; assay: Mutagenic activity in Salmonella Typhimurium TA100 assessed as fold increase in maximum revertant at 1000 ug by Ames test; format: functional
[7] = Salmonella enterica subsp. enterica serovar Typhimurium

T1 sequence (P08684 whole entry): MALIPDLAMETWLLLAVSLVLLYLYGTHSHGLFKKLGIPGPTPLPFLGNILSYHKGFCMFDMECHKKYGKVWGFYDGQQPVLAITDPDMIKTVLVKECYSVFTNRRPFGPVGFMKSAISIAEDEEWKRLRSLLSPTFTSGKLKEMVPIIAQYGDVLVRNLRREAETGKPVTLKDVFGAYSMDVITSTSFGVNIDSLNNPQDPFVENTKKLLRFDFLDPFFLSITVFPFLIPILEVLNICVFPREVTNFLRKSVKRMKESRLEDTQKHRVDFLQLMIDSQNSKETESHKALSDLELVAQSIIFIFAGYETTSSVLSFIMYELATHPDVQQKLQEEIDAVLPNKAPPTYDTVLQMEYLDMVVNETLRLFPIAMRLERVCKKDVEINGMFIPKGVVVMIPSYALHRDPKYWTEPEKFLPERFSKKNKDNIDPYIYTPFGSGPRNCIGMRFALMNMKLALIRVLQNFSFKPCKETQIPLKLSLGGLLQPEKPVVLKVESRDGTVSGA

- IC50 [1]: 2.7 µM
- IC50 [2]: 7.3 µM
SMILES: Cc1cccc(C)c1-c1nc2ccc(C(=O)Nc3ccc4ccccc4n3)cc2[nH]1

SMILES: Cc1cc(CCC(=O)O)cc(C)c1-c1nc2ccc(C(=O)Nc3ccc4ccccc4n3)cc2[nH]1
- fold change (FC) [3]: 14.57
- fold change (FC) [4]: 5.86

SMILES: O=C(Nc1ccc2ccccc2n1)c1ccc2nc(-c3c(Cl)cc(CCCP(=O)(O)O)cc3Cl)[nH]c2c1
- Activity [5, 7]: inactive
- Activity [6, 7]: inactive

- IC50 [1]: > 50 µM
- IC50 [2]: > 50 µM
SMILES: Cc1ccccc1-c1nc2ccc(C(=O)Nc3ccc4ccccc4n3)cc2[nH]1

SMILES: Cc1cc(CCCP(=O)(O)O)cc(C)c1-c1nc2ccc(C(=O)Nc3ccc4ccccc4n3)cc2[nH]1
- fold change (FC) [5]: 2
- fold change (FC) [6]: 2.48

SMILES: O=C(O)CCc1cc(Cl)c(-c2nc3ccc(C(=O)Nc4ccc5ccccc5n4)cc3[nH]2)c(Cl)c1
- Activity [3, 7]: inactive
- Activity [4, 7]: inactive
